# Results taken from patent US20100267561A1, “HERBICIDAL PYRIDAZINONE DERIVATIVES” (priority 2007, published 2010).
# Where two headings read alike, the source gives them in different places.
# What was measured:
# Assay in all cases: Test B pre-/postemergence plant response
# Type in all cases: in vivo
# [1] = tested on: green foxtail (Setaria viridis); settings: Setaria viridis, read-out: Plant response rating, Foxtail, Green; for pest or weed control at 31 g/ha: 31 g ai/ha; for pest or weed control at 62 g/ha: 62 g ai/ha, 100 complete control
# Procedure, shortened: (§1)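 Preemergence and postemergence (plants 2-18 cm, 1- to 4-leaf stage) applications used test chemicals in a non-phytotoxic solvent with surfactant. Plants were held in a greenhouse 13 to 15 days, then rated visually against controls on a 0-100 scale (0 no effect, 100 complete control).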
# [2] = tested on: lambsquarters (Chenopodium album); settings: for pest or weed control at 31 g/ha / pest or weed control at 62 g/ha: Chenopodium album, read-out: Plant response rating, Lambsquarters; for pest or weed control at 31 g/ha: 31 g ai/ha; for pest or weed control at 62 g/ha: 62 g ai/ha, 100 complete control
# Procedure, shortened: as §1
# [3] = tested on: large crabgrass (Digitaria sanguinalis); settings: for pest or weed control at 31 g/ha: 31 g ai/ha; for pest or weed control at 62 g/ha: 62 g ai/ha, 100 complete control
# Procedure, shortened: as §1
# [4] = tested on: morningglory (Ipomoea coccinea); settings: for pest or weed control at 31 g/ha / pest or weed control at 62 g/ha: Ipomoea, read-out: Plant response rating, Morningglory; for pest or weed control at 31 g/ha: 31 g ai/ha; for pest or weed control at 62 g/ha: 62 g ai/ha, 100 complete control
# Procedure, shortened: as §1
# [5] = tested on: velvetleaf (Abutilon theophrasti); settings: for pest or weed control at 31 g/ha / pest or weed control at 62 g/ha: Abutilon theophrasti, read-out: Plant response rating, Velvetleaf; for pest or weed control at 31 g/ha: 31 g ai/ha; for pest or weed control at 62 g/ha: 62 g ai/ha, 100 complete control
# Procedure, shortened: as §1
# [6] = tested on: wheat (Triticum aestivum); settings: for plant injury at 31 g/ha / plant injury at 62 g/ha: Triticum aestivum, read-out: Plant response rating, Wheat; for plant injury at 31 g/ha: 31 g ai/ha; for plant injury at 62 g/ha: 62 g ai/ha, 100 complete control
# Procedure, shortened: as §1
# wild oat (Avena fatua) = settings: for pest or weed control at 31 g/ha / pest or weed control at 62 g/ha: Avena fatua, read-out: Plant response rating, Oat, Wild; for pest or weed control at 31 g/ha: 31 g ai/ha; for pest or weed control at 62 g/ha: 62 g ai/ha, 100 complete control
# Procedure, shortened: as §1
# [7] = post-emergence, Postemergence, scale 0 to 100
# [8] = post-emergence, Postemergence, scale 0 to 100, 0 no effect
# [9] = pre-emergence, Preemergence, scale 0 to 100 (0 no effect, 100 complete control)
# [10] = pre-emergence, Preemergence, 0 to 100 scale, 0 no effect
# [11] = 8 g ai/ha, postemergence, 0-100 scale
# [12] = 16 g ai/ha, postemergence, 0-100 scale
# [13] = Preemergence, 8 g ai/ha, scale 0 to 100 (0 no effect, 100 complete control)
# [14] = Preemergence, 16 g ai/ha, scale 0 to 100
structure (smiles),measurement,setting,value
"Cc1cc(-c2ccc(Br)cc2)nn1-c1c(OC(=O)C2CC2)cnn(C(=O)C2CC2)c1=O [Compound 80, 5-[3-(4-bromophenyl)-5-methyl-1H-pyrazol-1-yl]-1-(cyclopropylcarbonyl)-1,6-dihydro-6-oxo-4-pyridazinyl cyclopropanecarboxylate]",pest or weed control at 31 g/ha,[1]; [7],100%
same,pest or weed control at 62 g/ha,[1]; [8],100%
same,pest or weed control at 31 g/ha,[1]; [9],100%
same,pest or weed control at 62 g/ha,[1]; [10],100%
same,Lambsquarters plant response rating,[2]; [11],0
same,Lambsquarters plant response rating,[2]; [12],0
same,pest or weed control at 31 g/ha,[2]; [7],0%
same,pest or weed control at 62 g/ha,[2]; [8],0%
same,pest or weed control at 31 g/ha,[2]; [9],0%
same,pest or weed control at 62 g/ha,[2]; [10],0%
same,Lambsquarters plant response rating,[2]; [13],0
same,Lambsquarters plant response rating,[2]; [14],0
same,"Crabgrass, Large plant response rating",[3]; [11],98
same,pest or weed control at 16 g/ha,"[3]; Digitaria sanguinalis, post-emergence, Postemergence, 16 g ai/ha, scale 0 to 100, read-out: Plant response rating, Crabgrass, Large",100%
same,pest or weed control at 31 g/ha,"[3]; Digitaria sanguinalis, post-emergence, Postemergence, scale 0 to 100, read-out: Plant response rating, Crabgrass, Large",100%
same,pest or weed control at 62 g/ha,"[3]; Digitaria sanguinalis, post-emergence, Postemergence, scale 0 to 100, 0 no effect, read-out: Plant response rating, Crabgrass, Large",100%
same,pest or weed control at 31 g/ha,"[3]; Digitaria sanguinalis, pre-emergence, Preemergence, scale 0 to 100 (0 no effect, 100 complete control), read-out: Plant response rating, Crabgrass, Large",100%
same,pest or weed control at 62 g/ha,"[3]; Digitaria sanguinalis, pre-emergence, Preemergence, 0 to 100 scale, 0 no effect, read-out: Plant response rating, Crabgrass, Large",100%
same,"Crabgrass, Large plant response rating",[3]; [13],0
same,"Crabgrass, Large plant response rating",[3]; [14],98
same,Morningglory plant response rating,[4]; [11],0
same,Morningglory plant response rating,[4]; [12],0
same,pest or weed control at 31 g/ha,[4]; [7],0%
same,pest or weed control at 62 g/ha,[4]; [8],0%
same,pest or weed control at 31 g/ha,[4]; [9],0%
same,pest or weed control at 62 g/ha,[4]; [10],0%
same,Morningglory plant response rating,[4]; [13],0
same,Morningglory plant response rating,[4]; [14],0
same,Velvetleaf plant response rating,[5]; [11],0
same,Velvetleaf plant response rating,[5]; [12],0
same,pest or weed control at 31 g/ha,[5]; [7],0%
same,pest or weed control at 62 g/ha,[5]; [8],0%
same,pest or weed control at 31 g/ha,[5]; [9],0%
same,pest or weed control at 62 g/ha,[5]; [10],0%
same,Velvetleaf plant response rating,[5]; [13],0
same,Velvetleaf plant response rating,[5]; [14],0
same,Wheat plant response rating,[6]; [11],35
same,Wheat plant response rating,[6]; [12],85
same,Wheat plant response rating,[6]; [13],0
same,Wheat plant response rating,[6]; [14],20
same,plant injury at 31 g/ha,[6]; [7],95%
same,plant injury at 62 g/ha,[6]; [8],98%
same,plant injury at 31 g/ha,[6]; [9],60%
same,plant injury at 62 g/ha,[6]; [10],95%
same,"Oat, Wild plant response rating",wild oat (Avena fatua); [11],85
same,"Oat, Wild plant response rating",wild oat (Avena fatua); [12],100
same,pest or weed control at 31 g/ha,wild oat (Avena fatua); [7],100%
same,pest or weed control at 62 g/ha,wild oat (Avena fatua); [8],100%
same,pest or weed control at 31 g/ha,wild oat (Avena fatua); [9],60%
same,pest or weed control at 62 g/ha,wild oat (Avena fatua); [10],70%
same,"Oat, Wild plant response rating",wild oat (Avena fatua); [13],30
same,"Oat, Wild plant response rating",wild oat (Avena fatua); [14],40
